Results taken from patent US9006188B2, “Co-crystals of dapagliflozin” (Mapi Pharma Ltd., priority 2013, dated 2015).
Read-outs that look alike come from different tables or passages of the source.

Key:
[1] = −20° C., tightly closed, 1.5 month
Description: Dapagliflozin was stored at −20° C., tightly closed. After being stored for 1.5 month, it was characterized by XRPD, MDSC and TGA to check if it is stable.

[2] = XRPD after DVS at 25° C., 0-95% relative humidity
Description: (§1) The preparation of lactose co-crystal and asparagine co-crystal were scaled up and repeated (about 400 mg of dapagliflozin free form was dissolved in 26 ml of IPA) and XRPD, PLM, TGA, DSC, NMR and DVS analyses were conducted for physicochemical properties evaluation. Before physicochemical properties evaluation, the solids precipitated out were isolated and dried off at 40° C. for 4 hours in vacuum drier. After hygroscopicity test, the sample was retested by XRPD to determine if any form transformation during the DVS test.
(§2) The sorption/desorption profiles of dapagliflozin Form I were tested at 25° C. under 0-95% relative humidity. […] This sample was tested by XRPD.

[3] = Hygroscopicity by Dynamic Vapor Sorption (DVS), sorption/desorption profile; assay type: physicochemical; conditions: for appearance of sample after DVS testing: after DVS at 25° C., 0-95% relative humidity
Description: as §1, §2

[4] = DVS 25° C., cycle 1, target 0.0 % P/Po
[5] = DVS 25° C., cycle 1, target 5.0 % P/Po
[6] = DVS 25° C., cycle 1, target 10.0 % P/Po
[7] = DVS 25° C., cycle 1, target 15.0 % P/Po
[8] = DVS 25° C., cycle 1, target 20.0 % P/Po
[9] = DVS 25° C., cycle 1, target 25.0 % P/Po
[10] = DVS 25° C., cycle 1, target 30.0 % P/Po
[11] = DVS 25° C., cycle 1, target 35.0 % P/Po
[12] = DVS 25° C., cycle 1, target 40.0 % P/Po
[13] = DVS 25° C., cycle 1, target 45.0 % P/Po
[14] = DVS 25° C., cycle 1, target 50.0 % P/Po
[15] = DVS 25° C., cycle 1, target 55.0 % P/Po
[16] = DVS 25° C., cycle 1, target 60.0 % P/Po
[17] = DVS 25° C., cycle 1, target 65.0 % P/Po
[18] = DVS 25° C., cycle 1, target 70.0 % P/Po
[19] = DVS 25° C., cycle 1, target 75.0 % P/Po
[20] = DVS 25° C., cycle 1, target 80.0 % P/Po
[21] = DVS 25° C., cycle 1, target 85.0 % P/Po
[22] = DVS 25° C., cycle 1, target 90.0 % P/Po
[23] = DVS 25° C., cycle 1, target 95.0 % P/Po

CCOc1ccc(Cc2cc([C@@H]3O[C@H](CO)[C@@H](O)[C@H](O)[C@H]3O)ccc2Cl)cc1 [Form I, (2S,3R,4R,5S,6R)-2-[4-chloro-3-(4-ethoxybenzyl)phenyl]-6-(hydroxymethyl)tetrahydro-2H-pyran-3,4,5-triol, reference compound]
stability on storage (form transformation by XRPD, MDSC, TGA) [1]: stable | stability on storage (form transformation by XRPD, MDSC, TGA) ([1]; listed as Dapagliflozin): no form transformation was detected | form transformation after DVS test (XRPD) [2]: an amorphous form (not containing the 32 deg peak) was detected | form transformation after DVS test (XRPD) ([2]; listed as dapagliflozin Form I): the amorphous was found after testing DVS | weight gain from 0 to 95% RH ([3]; DVS 25° C., 0 to 95% RH): 23.33% | Change In Mass (%) - ref, Desorption [3, 4]: 10.18% | Change In Mass (%) - ref, Sorption [3, 4]: 0.00% | Change In Mass (%) - ref, Desorption [3, 5]: 10.26% | Change In Mass (%) - ref, Hysteresis [3, 5]: 10.18% | Change In Mass (%) - ref, Sorption [3, 5]: 0.09% | Change In Mass (%) - ref, Desorption [3, 6]: 10.34% | Change In Mass (%) - ref, Hysteresis [3, 6]: 10.20% | Change In Mass (%) - ref, Sorption [3, 6]: 0.14% | Change In Mass (%) - ref, Desorption [3, 7]: 10.42% | Change In Mass (%) - ref, Hysteresis [3, 7]: 10.19% | Change In Mass (%) - ref, Sorption [3, 7]: 0.23% | Change In Mass (%) - ref, Desorption [3, 8]: 10.50% | Change In Mass (%) - ref, Hysteresis [3, 8]: 10.20% | Change In Mass (%) - ref, Sorption [3, 8]: 0.30% | Change In Mass (%) - ref, Desorption [3, 9]: 10.58% | Change In Mass (%) - ref, Hysteresis [3, 9]: 10.16% | Change In Mass (%) - ref, Sorption [3, 9]: 0.41% | Change In Mass (%) - ref, Desorption [3, 10]: 10.66% | Change In Mass (%) - ref, Hysteresis [3, 10]: 10.10% | Change In Mass (%) - ref, Sorption [3, 10]: 0.55% | Change In Mass (%) - ref, Desorption [3, 11]: 10.74% | Change In Mass (%) - ref, Hysteresis [3, 11]: 9.91% | Change In Mass (%) - ref, Sorption [3, 11]: 0.83% | Change In Mass (%) - ref, Desorption [3, 12]: 10.83% | Change In Mass (%) - ref, Hysteresis [3, 12]: 9.65% | Change In Mass (%) - ref, Sorption [3, 12]: 1.18% | Change In Mass (%) - ref, Desorption [3, 13]: 10.97% | Change In Mass (%) - ref, Hysteresis [3, 13]: 9.22% | Change In Mass (%) - ref, Sorption [3, 13]: 1.75% | Change In Mass (%) - ref, Desorption [3, 14]: 11.15% | Change In Mass (%) - ref, Hysteresis [3, 14]: 8.85% | Change In Mass (%) - ref, Sorption [3, 14]: 2.31% | Change In Mass (%) - ref, Desorption [3, 15]: 11.35% | Change In Mass (%) - ref, Hysteresis [3, 15]: 8.46% | Change In Mass (%) - ref, Sorption [3, 15]: 2.89% | Change In Mass (%) - ref, Desorption [3, 16]: 11.59% | Change In Mass (%) - ref, Hysteresis [3, 16]: 8.05% | Change In Mass (%) - ref, Sorption [3, 16]: 3.54% | Change In Mass (%) - ref, Desorption [3, 17]: 11.95% | Change In Mass (%) - ref, Hysteresis [3, 17]: 7.67% | Change In Mass (%) - ref, Sorption [3, 17]: 4.27% | Change In Mass (%) - ref, Desorption [3, 18]: 12.47% | Change In Mass (%) - ref, Hysteresis [3, 18]: 7.53% | Change In Mass (%) - ref, Sorption [3, 18]: 4.94% | Change In Mass (%) - ref, Desorption [3, 19]: 13.23% | Change In Mass (%) - ref, Hysteresis [3, 19]: 7.02% | Change In Mass (%) - ref, Sorption [3, 19]: 6.21% | Change In Mass (%) - ref, Desorption [3, 20]: 14.44% | Change In Mass (%) - ref, Hysteresis [3, 20]: 5.71% | Change In Mass (%) - ref, Sorption [3, 20]: 8.73% | Change In Mass (%) - ref, Desorption [3, 21]: 16.99% | Change In Mass (%) - ref, Hysteresis [3, 21]: 4.90% | Change In Mass (%) - ref, Sorption [3, 21]: 12.09% | Change In Mass (%) - ref, Desorption [3, 22]: 21.36% | Change In Mass (%) - ref, Hysteresis [3, 22]: 4.66% | Change In Mass (%) - ref, Sorption [3, 22]: 16.70% | Change In Mass (%) - ref, Desorption [3, 23]: 23.33% | Change In Mass (%) - ref, Sorption [3, 23]: 23.33% | appearance of sample after DVS testing [3]: thick gel | appearance of sample after DVS testing ([3]; listed as dapagliflozin Form I): thick gel-like material | hygroscopicity classification ([3]; based on DVS weight gain from 0 to 95% RH): very hygroscopic
